Data reported in patent US12209081B2 (Katholieke Universiteit Leuven, priority 2020, dated 2025).

These compounds were tested against mouse TRPM3α2 (mTRPM3) ion channel (Mus musculus (Mouse), UniProt J9SQF3) (assay: TRPM3 ion channel driven Ca2+ uptake, Fluo-4 AM assay, mTRPM3alpha2 overexpressing flip-in HEK293 cells stimulated with pregnenolone sulfate). Details: PS 50 μM, cpds 300-399.
Assay type: cell-based
Experimental: Part B Monitoring the TRPM3 Ion Channel Driven Ca^2+ Uptake.
In order to monitor the inhibition of the mouse TRPM3α2 (mTRPM3) ion channel by the compounds of the invention, a cellular system making use of an mTRPM3alpha2 or hTRPM3 overexpressing cell line (flip-in HEK293) was used. The TRPM3 channel was stimulated/opened with Pregnenolone sulfate (PS) (50 μM) which results in Ca^2+ influx.
For mTRPM3, the intracellular Ca^2+ was measured with a Calcium responsive dye. Fluor-4 AM ester (Invitrogen). Cells were cultured until a confluence of 80-90%, washed with Versene (Invitrogen) and detached from the surface by a short incubation with 0.05% Trypsin (Invitrogen). The trypsination process was stopped by the addition of complete cell culture medium (DMEM, glutamax, 10% FCS,NEAA,Pen-Strep). Cells were collected and resuspended in Krebs buffer without Calcium at RT.
Prior the cell seeding (±2000 cells/well into a black, 384 well plate (Greiner)) the diluted compound was added in the assay plate, together with the PS dissolved in Krebs buffer containing Calcium. […] Directly after cell addition the plates were read on an Envision fluorescence reader (Perkin Elmer) by an Excitation of 485 nm and emission at 535 nm.
Channel inhibition was calculated compared to a non-PS stimulated control versus a condition stimulated with PS (50 μM) with vehicle. The ability of the compounds of the invention to inhibit this activity was determined as: Percentage inhibition=[1-((RFU determined for sample with test compound present—RFU determined for sample with positive control inhibitor) divided by (RFU determined in the presence of vehicle—RFU determined for sample with positive control inhibitor))]*100.

mouse TRPM3α2 (mTRPM3) ion channel, sequence (J9SQF3 other isoform, or with tags, fused parts or gaps): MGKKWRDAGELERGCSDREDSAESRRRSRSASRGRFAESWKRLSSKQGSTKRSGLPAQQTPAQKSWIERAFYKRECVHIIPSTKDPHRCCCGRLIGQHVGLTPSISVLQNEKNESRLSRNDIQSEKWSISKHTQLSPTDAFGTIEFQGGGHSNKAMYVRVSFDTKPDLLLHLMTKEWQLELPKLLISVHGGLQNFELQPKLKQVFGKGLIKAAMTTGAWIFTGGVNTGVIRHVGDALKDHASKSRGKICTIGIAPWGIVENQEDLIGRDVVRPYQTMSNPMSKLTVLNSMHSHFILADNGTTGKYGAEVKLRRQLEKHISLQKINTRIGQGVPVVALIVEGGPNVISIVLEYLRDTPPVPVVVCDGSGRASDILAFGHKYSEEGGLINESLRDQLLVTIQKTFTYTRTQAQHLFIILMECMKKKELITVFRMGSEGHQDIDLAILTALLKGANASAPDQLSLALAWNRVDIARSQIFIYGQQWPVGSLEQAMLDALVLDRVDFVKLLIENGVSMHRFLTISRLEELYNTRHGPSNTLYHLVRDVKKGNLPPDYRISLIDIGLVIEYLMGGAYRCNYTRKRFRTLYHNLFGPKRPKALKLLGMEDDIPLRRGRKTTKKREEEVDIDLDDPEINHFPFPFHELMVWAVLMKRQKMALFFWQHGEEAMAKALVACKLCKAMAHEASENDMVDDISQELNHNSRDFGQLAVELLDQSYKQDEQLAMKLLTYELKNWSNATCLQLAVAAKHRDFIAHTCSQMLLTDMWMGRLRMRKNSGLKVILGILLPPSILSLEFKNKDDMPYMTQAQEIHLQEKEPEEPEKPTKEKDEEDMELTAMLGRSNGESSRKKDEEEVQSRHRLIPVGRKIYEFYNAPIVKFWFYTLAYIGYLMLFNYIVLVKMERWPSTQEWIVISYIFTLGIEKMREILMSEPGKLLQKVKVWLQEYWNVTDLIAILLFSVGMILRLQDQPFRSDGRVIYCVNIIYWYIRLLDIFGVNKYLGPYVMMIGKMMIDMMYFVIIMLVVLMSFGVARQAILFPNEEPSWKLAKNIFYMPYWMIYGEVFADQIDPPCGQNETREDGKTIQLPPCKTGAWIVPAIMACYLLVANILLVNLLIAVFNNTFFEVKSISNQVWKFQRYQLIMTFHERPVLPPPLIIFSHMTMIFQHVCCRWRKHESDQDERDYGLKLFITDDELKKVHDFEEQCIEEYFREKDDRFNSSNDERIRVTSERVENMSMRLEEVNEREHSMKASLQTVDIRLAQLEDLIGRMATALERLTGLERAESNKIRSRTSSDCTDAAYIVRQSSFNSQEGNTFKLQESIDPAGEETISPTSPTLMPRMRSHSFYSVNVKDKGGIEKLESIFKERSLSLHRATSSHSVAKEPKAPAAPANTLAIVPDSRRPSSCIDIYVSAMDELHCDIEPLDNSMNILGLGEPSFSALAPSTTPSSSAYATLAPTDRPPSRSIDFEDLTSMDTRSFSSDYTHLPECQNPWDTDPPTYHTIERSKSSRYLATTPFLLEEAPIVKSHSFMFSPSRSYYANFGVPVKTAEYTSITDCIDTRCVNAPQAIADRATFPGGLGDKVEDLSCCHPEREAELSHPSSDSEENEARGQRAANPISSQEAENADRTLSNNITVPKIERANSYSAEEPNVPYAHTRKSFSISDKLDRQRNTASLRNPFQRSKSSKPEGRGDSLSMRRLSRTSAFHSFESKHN

IC50 [µM]	SMILES
< 1	Cc1oc2ccc(OCc3ccnn3CC(F)F)cc2c1C(=O)NC1(CO)CCCNC1=O (single isomer, unassigned) [332-En 1, 5-((1-(2,2-difluoroethyl)-1H-pyrazol-5-yl)methoxy)-N-(3-(hydroxymethyl)-2-oxopiperidin-3-yl)-2-methylbenzofuran-3-carboxamide]

Same assay, conditions: PS (50 μM) stimulated, cpd 001-199

IC50 [µM]	SMILES
< 1	Cc1ncsc1COc1ccc2oc(C)c(C(=O)NC3CCN(CC(F)(F)F)C3)c2c1 (single isomer, unassigned) [116-En 1, 2-methyl-5-((4-methylthiazol-5-yl)methoxy)-N-(1-(2,2,2-trifluoroethyl)pyrrolidin-3-yl)benzofuran-3-carboxamide]
< 1	Cc1ncsc1COc1ccc2oc(C)c(C(=O)NC3(CCO)CCOC3)c2c1 (single isomer, unassigned) [121-En 1, N-(3-(2-hydroxyethyl)tetrahydrofuran-3-yl)-2-methyl-5-((4-methylthiazol-5-yl)methoxy)benzo-furan-3-carboxamide]
< 1	Cc1ncsc1COc1ccc2oc(C)c(C(=O)NC3CCN(CCO)C3=O)c2c1 (single isomer, unassigned) [160-En 1, N-(1-(2-hydroxyethyl)-2-oxopyrrolidin-3-yl)-2-methyl-5-((4-methylthiazol-5-yl)methoxy)benzo-furan-3-carboxamide]
< 1	Cc1ncsc1COc1ccc2oc(C)c(C(=O)NC3CN(C(=O)OCC(F)(F)F)CC3(F)F)c2c1 (single isomer, unassigned) [172-En 1, 2,2,2-trifluoroethyl 3,3-difluoro-4-(2-methyl-5-((4-methylthiazol-5-yl)methoxy)benzofuran-3-carboxamido)pyrrolidine-1-carboxylate]
1 to 20	Cc1ncsc1COc1ccc2oc(C(F)F)c(C(=O)NC3CCN(CCO)C3=O)c2c1 (single isomer, unassigned) [198-En 1, 2-(difluoromethyl)-N-(1-(2-hydroxyethyl)-2-oxopyrrolidin-3-yl)-5-((4-methylthiazol-5-yl) -methoxy)benzofuran-3-carboxamide]

The remaining lines, values behind:

SMILES	IC50 [µM]
Cc1oc2ccc(OCc3cccnc3C(F)(F)F)cc2c1C(=O)NC1CCN(CCO)C1=O (single isomer, unassigned) [120-En 1, N-(1-(2-hydroxyethyl)-2-oxopyrrolidin-3-yl)-2-methyl-5-((2 (trifluoromethyl)pyridin-3-yl)methoxy)benzofuran-3-carboxamide]	< 1
Cc1oc2ccc(OCc3cccnc3C(F)(F)F)cc2c1C(=O)NC1CN(C)CC1(F)F (single isomer, unassigned) [124-En 1, N-(4,4-difluoro-1-methylpyrrolidin-3-yl)-2-methyl-5-((2-(trifluoromethyl)pyridin-3-yl)methoxy) -benzofuran-3-carboxamide]	< 1
Cc1oc2ccc(OCc3cccnc3C(F)(F)F)cc2c1C(=O)NC1COCC1O (single isomer, unassigned) [147-Dia 1-En 1, N-(4-hydroxytetrahydrofuran-3-yl)-2-methyl-5-((2-(trifluoromethyl)pyridin-3-yl)methoxy) -benzofuran-3-carboxamide]	< 1
Cc1oc2ccc(OCc3cccnc3C(F)(F)F)cc2c1C(=O)NC1COCC1O (single isomer, unassigned) [147-Dia 1-En 2, N-(4-hydroxytetrahydrofuran-3-yl)-2-methyl-5-((2-(trifluoromethyl)pyridin-3-yl)methoxy) -benzofuran-3-carboxamide]	< 1
Cc1oc2ccc(OCc3cccnc3C(F)(F)F)cc2c1C(=O)NC1CCN(CC(F)(F)F)C1 (single isomer, unassigned) [149-En 1, 2-methyl-N-(1-(2,2,2-trifluoroethyl)pyrrolidin-3-yl)-5-((2-(trifluoromethyl)pyridin-3-yl)methoxy) -benzofuran-3-carboxamide]	< 1
Cc1oc2ccc(OCc3cccnc3C(F)(F)F)cc2c1C(=O)NC1CN(CC(F)(F)F)CC1(F)F (single isomer, unassigned) [157-En 1, N-(4,4-difluoro-1-(2,2,2-trifluoroethyl)pyrrolidin-3-yl)-2-methyl-5-((2-(trifluoromethyl)pyridin-3-yl)methoxy)benzofuran-3-carboxamide]	< 1
Cc1cc2oc(C)c(C(=O)NC3CCNCC3(F)F)c2cc1OCc1cccnc1C(F)(F)F (single isomer, unassigned) [179-En 1, N-(3,3-difluoropiperidin-4-yl)-2,6-dimethyl-5-((2-(trifluoromethyl)pyridin-3-yl)methoxy)benzo-furan-3-carboxamide]	1 to 20
Cc1cc2oc(C)c(C(=O)NC3CCNCC3(F)F)c2cc1OCc1cccnc1C(F)(F)F (single isomer, unassigned) [179-En 2, N-(3,3-difluoropiperidin-4-yl)-2,6-dimethyl-5-((2-(trifluoromethyl)pyridin-3-yl)methoxy)benzo-furan-3-carboxamide]	> 20
Cc1oc2ccc(OCc3cccnc3C(F)(F)F)c(C#N)c2c1C(=O)NC1CCNCC1(F)F (single isomer, unassigned) [191-En 1, 4-cyano-N-(3,3-difluoropiperidin-4-yl)-2-methyl-5-((2-(trifluoromethyl)pyridin-3-yl)methoxy) -benzofuran-3-carboxamide]	> 20
Cc1oc2cc(C#N)c(OCc3cccnc3C(F)(F)F)cc2c1C(=O)NC1CCNCC1(F)F (single isomer, unassigned) [195-En 1, 6-cyano-N-(3,3-difluoropiperidin-4-yl)-2-methyl-5-((2-(trifluoromethyl)pyridin-3-yl)methoxy) -benzofuran-3-carboxamide]	> 20
Cc1oc2cc(C#N)c(OCc3cccnc3C(F)(F)F)cc2c1C(=O)NC1CCNCC1(F)F (single isomer, unassigned) [195-En 2, 6-cyano-N-(3,3-difluoropiperidin-4-yl)-2-methyl-5-((2-(trifluoromethyl)pyridin-3-yl)methoxy) -benzofuran-3-carboxamide]	> 20
Cc1oc2c(C#N)cc(OCc3cccnc3C(F)(F)F)cc2c1C(=O)NC1CCNCC1(F)F (single isomer, unassigned) [196-En 1, 7-cyano-N-(3,3-difluoropiperidin-4-yl)-2-methyl-5-((2-(trifluoro-methyl)pyridin-3-yl)methoxy)benzofuran-3-carboxamide]	> 20
Cc1oc2c(C#N)cc(OCc3cccnc3C(F)(F)F)cc2c1C(=O)NC1CCNCC1(F)F (single isomer, unassigned) [196-En 2, 7-cyano-N-(3,3-difluoropiperidin-4-yl)-2-methyl-5-((2-(trifluoro-methyl)pyridin-3-yl)methoxy)benzofuran-3-carboxamide]	1 to 20
O=C(NC1CCNCC1(F)F)c1c(C(F)F)oc2ccc(OCc3cccnc3C(F)(F)F)cc12 (single isomer, unassigned) [199-En 1, 2-(difluoromethyl)-N-(3,3-difluoropiperidin-4-yl)-5-((2-(trifluoromethyl)pyridin-3-yl)methoxy) -benzofuran-3-carboxamide]	< 1

Same assay, conditions: PS (50 μM) stimulated, cpds. 400-499

IC50 [µM]	SMILES
< 1	Cc1ncsc1COc1ccc2oc(C)c(C(=O)NC(CO)CN(C)C)c2c1 (single isomer, unassigned) [413-En 1, N-(1-(dimethylamino)-3-hydroxypropan-2-yl)-2-methyl-5-((4-methylthiazol-5-yl)methoxy)benzofuran-3-carboxamide]
< 1	Cc1ncc(COc2ccc3oc(C)c(C(=O)NC(COC(F)F)C(N)=O)c3c2)s1 (single isomer, unassigned) [447-En 1, N-(1-amino-3-(difluoromethoxy)-1-oxopropan-2-yl)-2-methyl-5-((2-methylthiazol-5-yl)methoxy)benzofuran-3-carboxamide]

More lines, now with the values behind:

SMILES	IC50 [µM]
Cc1ncc(COc2ccc3oc(C)c(C(=O)NC(Cn4cncn4)C(N)=O)c3c2)s1 (single isomer, unassigned) [432-En 1, N-(1-amino-1-oxo-3-(1H-1,2,4-triazol-1-yl)propan-2-yl)-2-methyl-5-((2-methylthiazol-5-yl)methoxy)benzofuran-3-carboxamide]	1 to 20
Cc1ncc(COc2ccc3oc(C)c(C(=O)NC(Cn4cncn4)C(N)=O)c3c2)s1 (single isomer, unassigned) [432-En 2, N-(1-amino-1-oxo-3-(1H-1,2,4-triazol-1-yl)propan-2-yl)-2-methyl-5-((2-methylthiazol-5-yl)methoxy)benzofuran-3-carboxamide]	< 1

Same assay, conditions: PS (50 μM) stimulated, cpds. 500-599

IC50 [µM]	SMILES
1 to 20	Cc1ncc(COc2ccc3oc(C)c(C(=O)NC4(CO)CCNC4)c3c2)s1 (single isomer, unassigned) [530-En 1, N-(3-(hydroxymethyl)pyrrolidin-3-yl)-2-methyl-5-((2-methylthiazol-5-yl)methoxy)benzofuran-3-carboxamide]
< 1	Cc1ncc(COc2ccc3oc(C)c(C(=O)NC4(CO)CCNC4)c3c2)s1 (single isomer, unassigned) [530-En 2, N-(3-(hydroxymethyl)pyrrolidin-3-yl)-2-methyl-5-((2-methylthiazol-5-yl)methoxy)benzofuran-3-carboxamide]
